Data taken from ChEMBL document CHEMBL1131225, “Macrocyclic amino carboxylates as selective MMP-8 inhibitors” (J Med Chem, 1998).

Legend:
Stromelysin-1 = Stromelysin-1 (Homo sapiens, UniProt P08254); test: Inhibition of Matrix metalloprotease-3
Neutrophil collagenase = Neutrophil collagenase (Homo sapiens, UniProt P22894); test: Inhibition of Matrix metalloprotease-8
[1] = target: 72 kDa type IV collagenase (Homo sapiens, UniProt P08253); test: Inhibition of Matrix metalloprotease-2
Interstitial collagenase = target: T1, Interstitial collagenase (Homo sapiens, UniProt P03956); test: Inhibition of Matrix metalloprotease-1
T1 sequence (P03956 whole entry): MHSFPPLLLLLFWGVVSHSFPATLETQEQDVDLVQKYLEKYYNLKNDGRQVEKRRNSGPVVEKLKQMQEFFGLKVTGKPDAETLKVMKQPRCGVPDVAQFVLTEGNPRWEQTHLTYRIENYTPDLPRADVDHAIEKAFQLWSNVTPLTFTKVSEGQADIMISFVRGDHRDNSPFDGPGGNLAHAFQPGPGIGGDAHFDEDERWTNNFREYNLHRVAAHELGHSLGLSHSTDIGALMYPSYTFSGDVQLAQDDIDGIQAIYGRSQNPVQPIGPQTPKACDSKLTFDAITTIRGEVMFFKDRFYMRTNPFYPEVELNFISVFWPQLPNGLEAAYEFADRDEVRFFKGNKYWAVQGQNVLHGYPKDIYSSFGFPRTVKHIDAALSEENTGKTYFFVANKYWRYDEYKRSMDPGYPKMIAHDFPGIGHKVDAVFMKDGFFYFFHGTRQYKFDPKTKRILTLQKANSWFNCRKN

[2] = target: Matrix metalloproteinase-9 (Homo sapiens, UniProt P14780); test: Inhibition of Matrix metalloprotease-9
Chain of Matrix metalloproteinase-9 (P14780 whole entry): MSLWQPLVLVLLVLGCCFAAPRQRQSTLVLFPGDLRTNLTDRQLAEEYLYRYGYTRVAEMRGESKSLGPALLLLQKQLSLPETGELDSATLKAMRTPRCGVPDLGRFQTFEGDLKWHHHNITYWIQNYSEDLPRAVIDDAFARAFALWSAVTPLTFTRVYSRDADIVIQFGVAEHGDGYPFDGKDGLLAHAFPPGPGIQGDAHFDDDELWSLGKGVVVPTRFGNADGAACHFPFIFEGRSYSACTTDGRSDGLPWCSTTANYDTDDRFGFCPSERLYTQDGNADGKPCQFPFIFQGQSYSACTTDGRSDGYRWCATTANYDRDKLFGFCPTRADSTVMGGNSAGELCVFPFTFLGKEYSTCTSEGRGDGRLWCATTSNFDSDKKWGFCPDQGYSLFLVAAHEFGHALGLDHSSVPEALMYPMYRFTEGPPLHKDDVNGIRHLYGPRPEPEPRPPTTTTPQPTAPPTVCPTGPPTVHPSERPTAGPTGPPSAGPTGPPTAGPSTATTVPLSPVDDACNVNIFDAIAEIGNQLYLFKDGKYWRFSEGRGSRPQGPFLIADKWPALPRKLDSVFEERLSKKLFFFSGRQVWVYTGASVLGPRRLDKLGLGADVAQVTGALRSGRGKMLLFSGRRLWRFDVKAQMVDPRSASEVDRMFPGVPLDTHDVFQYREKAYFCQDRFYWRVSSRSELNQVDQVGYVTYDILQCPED

Chain of 72 kDa type IV collagenase (P08253 whole entry): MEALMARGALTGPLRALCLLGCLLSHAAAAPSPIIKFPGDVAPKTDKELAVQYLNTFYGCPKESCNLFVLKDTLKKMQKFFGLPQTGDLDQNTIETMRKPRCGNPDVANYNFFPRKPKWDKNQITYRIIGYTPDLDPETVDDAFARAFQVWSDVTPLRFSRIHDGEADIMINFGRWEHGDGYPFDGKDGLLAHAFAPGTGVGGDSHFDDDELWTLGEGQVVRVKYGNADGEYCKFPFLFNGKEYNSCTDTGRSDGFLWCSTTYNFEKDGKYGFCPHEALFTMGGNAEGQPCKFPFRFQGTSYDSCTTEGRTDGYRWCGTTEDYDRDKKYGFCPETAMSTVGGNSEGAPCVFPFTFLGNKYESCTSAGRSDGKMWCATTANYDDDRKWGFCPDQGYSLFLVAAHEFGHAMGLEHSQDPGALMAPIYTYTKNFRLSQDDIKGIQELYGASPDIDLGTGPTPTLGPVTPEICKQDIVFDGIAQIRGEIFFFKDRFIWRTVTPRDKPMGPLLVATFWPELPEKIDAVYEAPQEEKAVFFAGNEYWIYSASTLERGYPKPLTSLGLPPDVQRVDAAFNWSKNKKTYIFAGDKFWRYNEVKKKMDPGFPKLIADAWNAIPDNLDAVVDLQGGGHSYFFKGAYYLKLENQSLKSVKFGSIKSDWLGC
Chain of Stromelysin-1 (P08254 whole entry): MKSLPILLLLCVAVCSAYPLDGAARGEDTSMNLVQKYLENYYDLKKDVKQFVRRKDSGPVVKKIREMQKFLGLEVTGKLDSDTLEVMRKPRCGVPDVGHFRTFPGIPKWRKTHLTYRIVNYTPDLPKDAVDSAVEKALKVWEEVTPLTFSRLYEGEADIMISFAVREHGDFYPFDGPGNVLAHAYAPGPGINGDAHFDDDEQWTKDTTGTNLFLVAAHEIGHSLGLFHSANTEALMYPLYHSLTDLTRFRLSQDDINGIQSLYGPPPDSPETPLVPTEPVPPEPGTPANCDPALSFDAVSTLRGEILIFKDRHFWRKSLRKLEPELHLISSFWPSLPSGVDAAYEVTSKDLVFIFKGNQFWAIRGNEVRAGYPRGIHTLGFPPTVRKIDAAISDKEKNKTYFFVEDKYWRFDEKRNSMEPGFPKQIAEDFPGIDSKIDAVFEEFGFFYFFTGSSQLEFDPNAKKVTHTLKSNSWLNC
Chain of Neutrophil collagenase (P22894 whole entry): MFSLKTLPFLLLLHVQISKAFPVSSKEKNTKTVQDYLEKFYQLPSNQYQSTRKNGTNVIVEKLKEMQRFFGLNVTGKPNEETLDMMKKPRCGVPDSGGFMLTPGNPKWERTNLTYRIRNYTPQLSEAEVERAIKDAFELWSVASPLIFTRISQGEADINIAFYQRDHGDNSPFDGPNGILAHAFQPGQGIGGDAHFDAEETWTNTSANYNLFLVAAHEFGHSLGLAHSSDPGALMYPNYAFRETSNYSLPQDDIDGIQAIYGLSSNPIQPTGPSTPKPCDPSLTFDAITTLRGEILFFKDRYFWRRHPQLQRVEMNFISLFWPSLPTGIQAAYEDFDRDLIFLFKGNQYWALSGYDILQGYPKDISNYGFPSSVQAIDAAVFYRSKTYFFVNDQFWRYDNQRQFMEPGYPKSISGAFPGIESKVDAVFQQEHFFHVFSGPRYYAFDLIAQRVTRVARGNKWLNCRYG

| Ki (Stromelysin-1) | Ki (Neutrophil collagenase) | Ki [1] | Ki (Interstitial collagenase) | Ki [2] | SMILES |
| --- | --- | --- | --- | --- | --- |
| 2.9 µM | 0.01 µM | 0.238 µM | 8.4 µM | 5.8 µM | CNC(=O)[C@@H]1CCC(=O)OCCNC(=O)CC[C@H](C(=O)O)N[C@@H](CCc2ccccc2)C(=O)N1 |
| 35 µM | 0.531 µM | 2.4 µM | 0.9 µM | 9.8 µM | CNC(=O)[C@@H]1CCCCNC(=O)C[C@H](C(=O)O)N[C@@H](CCc2ccccc2)C(=O)N1 |
| 2.4 µM | 0.009 µM | 0.249 µM | 1.45 µM | 0.288 µM | CNC(=O)[C@@H]1CCCCNC(=O)CC[C@H](C(=O)O)N[C@@H](CCc2ccc(-c3ccccc3)cc2)C(=O)N1 |
| 14.1 µM | 0.293 µM | 1.53 µM |  | 0.404 µM | CNC(=O)CC[C@@H](N[C@@H](CCc1ccccc1)C(=O)N[C@@H](CCCCNC(C)=O)C(=O)NC)C(=O)O |
| 13.5 µM | 0.017 µM | 8.1 µM |  | 6.6 µM | CNC(=O)[C@@H]1CCCCNC(=O)CC[C@H](C(=O)O)N[C@@H](CCc2ccccc2)C(=O)N1 |
